Assay results as given in patent US11292796B2 (SIGNAL PHARMACEUTICALS, LLC, priority 2008, dated 2022).

Target: T1, mTOR (Homo sapiens, UniProt P42345)
T1 construct: purchased Invitrogen PR8683A
Assay: mTOR HTR-FRET assay
Assay type: biochemical
Conditions: read-out: Act. Level (IC50 in mTor HTR-FRET assay)
Procedure: The following is an example of an assay that can be used to determine the mTOR inhibitory activity of a test compound. Heteroaryl Compounds were dissolved in DMSO and prepared as 10 mM stocks and diluted appropriately for the experiments. Reagents were prepared as follows:
“Simple TOR buffer” (used to dilute high glycerol TOR fraction): 10 mM Tris pH 7.4, 100 mM NaCl, 0.1% Tween-20, 1 mM DTT. Invitrogen mTOR (cat #PR8683A) was diluted in this buffer to an assay concentration of 0.200 μg/mL.
To 20 μL of the Simple mTor buffer is added 0.5 μL of test compound in DMSO. To initiate the reaction 5 μL of ATP/Substrate solution was added to 20 μL of the Simple TOR buffer solution (control) and to the compound solution prepared above.

T1 sequence (P42345 1360-2549 limits assumed): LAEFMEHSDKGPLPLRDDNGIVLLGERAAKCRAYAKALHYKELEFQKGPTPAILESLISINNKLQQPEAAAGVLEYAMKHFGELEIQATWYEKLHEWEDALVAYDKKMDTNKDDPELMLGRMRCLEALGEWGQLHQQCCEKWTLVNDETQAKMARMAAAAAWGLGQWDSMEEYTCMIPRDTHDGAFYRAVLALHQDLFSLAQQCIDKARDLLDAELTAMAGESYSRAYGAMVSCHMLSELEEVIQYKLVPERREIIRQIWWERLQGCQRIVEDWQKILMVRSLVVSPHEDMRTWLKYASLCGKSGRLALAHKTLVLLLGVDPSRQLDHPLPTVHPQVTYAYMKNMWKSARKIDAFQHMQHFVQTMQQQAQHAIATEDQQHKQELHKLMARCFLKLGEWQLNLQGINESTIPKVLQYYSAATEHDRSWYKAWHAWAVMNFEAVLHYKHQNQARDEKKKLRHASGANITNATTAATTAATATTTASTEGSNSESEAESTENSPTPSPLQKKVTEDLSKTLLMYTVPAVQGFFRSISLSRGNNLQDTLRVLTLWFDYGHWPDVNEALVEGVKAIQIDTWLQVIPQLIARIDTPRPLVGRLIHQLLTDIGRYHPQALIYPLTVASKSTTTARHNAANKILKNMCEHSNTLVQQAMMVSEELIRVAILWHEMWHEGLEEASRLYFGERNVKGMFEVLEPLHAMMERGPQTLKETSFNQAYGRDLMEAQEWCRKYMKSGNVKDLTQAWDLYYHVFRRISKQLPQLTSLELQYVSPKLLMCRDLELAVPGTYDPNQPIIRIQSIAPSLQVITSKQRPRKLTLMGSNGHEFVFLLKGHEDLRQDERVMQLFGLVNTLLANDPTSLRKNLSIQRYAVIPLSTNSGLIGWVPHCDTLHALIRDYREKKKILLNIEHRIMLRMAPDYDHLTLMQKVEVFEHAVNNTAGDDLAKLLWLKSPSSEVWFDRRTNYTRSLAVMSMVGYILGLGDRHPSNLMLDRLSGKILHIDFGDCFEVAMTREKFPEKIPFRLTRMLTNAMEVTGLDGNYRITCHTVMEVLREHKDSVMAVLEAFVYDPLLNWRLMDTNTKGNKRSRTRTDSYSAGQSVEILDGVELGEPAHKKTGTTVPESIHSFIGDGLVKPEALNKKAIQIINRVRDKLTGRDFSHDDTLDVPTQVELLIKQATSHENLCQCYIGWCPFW

**Q.** `C[C@H](O)c1ccc(-c2cnc3c(n2)N(CCC2CCOCC2)CC(=O)N3)cn1` [Example 83, (S)-6-(6-(1-hydroxyethyl)pyridin-3-yl)-4-(2-(tetrahydro-2H-pyran-4-yl)ethyl)-3,4-dihydropyrazino[2,3-b]pyrazin-2(1H)-one] was tested. Which IC50 did it give?
**A.** Its IC50 is 250 to 500 nM.

**Q.** How did the IC50 turn out when `Cc1cc(-c2nnc[nH]2)ccc1-c1cnc2c(n1)N(CCC1CCOCC1)C(C)(C)C(=O)N2` [Example 84, 3,3-dimethyl-6-(2-methyl-4-(4H-1,2,4-triazol-3-yl)phenyl)-4-(2-(tetrahydro-2H-pyran-4-yl)ethyl)-3,4-dihydropyrazino[2,3-b]pyrazin-2(1H)-one] was run?
**A.** The IC50 was 0.005 to 250 nM.

**Q.** `CC(C)(O)c1ccc(-c2cnc3c(n2)N(CCC2CCOCC2)C(C)(C)C(=O)N3)cn1` [Example 85, 6-(6-(2-hydroxypropan-2-yl)pyridin-3-yl)-3,3-dimethyl-4-(2-(tetrahydro-2H-pyran-4-yl)ethyl)-3,4-dihydropyrazino[2,3-b]pyrazin-2(1H)-one] was tested. Which IC50 did it give?
**A.** The IC50 was 500 to 1000 nM.

**Q.** How did the IC50 turn out when `CO[C@H]1CC[C@H](N2CC(=O)Nc3ncc(-c4ccc(C(C)(C)O)cc4)nc32)CC1` [Example 86, 6-(4-(2-hydroxypropan-2-yl)phenyl)-4-(trans-4-methoxycyclohexyl)-3,4-dihydropyrazino[2,3-b]pyrazin-2(1H)-one] was run?
**A.** Its IC50 is 0.005 to 250 nM.

**Q.** With `CO[C@H]1CC[C@H](CN2CC(=O)Nc3ncc(-c4ccc(C(C)(C)O)cc4)nc32)CC1` [Example 87, 6-(4-(2-hydroxypropan-2-yl)phenyl)-4-((trans-4-methoxycyclohexyl)methyl)-3,4-dihydropyrazino[2,3-b]pyrazin-2(1H)-one] as the compound, how does the IC50 read?
**A.** The IC50 was 250 to 500 nM.

**Q.** With `CC(C)(O)c1ccc(-c2cnc3c(n2)N(CC2CCOCC2)CC(=O)N3)cc1` [Example 90, 6-(4-(2-hydroxypropan-2-yl)phenyl)-4-((tetrahydro-2H-pyran-4-yl)methyl)-3,4-dihydropyrazino[2,3-b]pyrazin-2(1H)-one] as the compound, how does the IC50 read?
**A.** Its IC50 is 0.005 to 250 nM.

**Q.** For `O=C1Nc2ncc(-c3ccc(-c4nnc[nH]4)nc3)nc2N2CCOCC12` (stereo not drawn) [Example 92, 9-(6-(4H-1,2,4-triazol-3-yl)-3-pyridyl)-6,11,4a-trihydromorpholino[4,3-e]pyrazino[2,3-b]pyrazin-5-one], which IC50 is on record?
**A.** Its IC50 is 500 to 1000 nM.

**Q.** `Cc1nc(-c2nnc[nH]2)ccc1-c1cnc2c(n1)N(CC1CCOCC1)CC(=O)N2` [Example 93, 6-(2-methyl-6-(4H-1,2,4-triazol-3-yl)pyridin-3-yl)-4-((tetrahydro-2H-pyran-4-yl)methyl)-3,4-dihydropyrazino[2,3-b]pyrazin-2(1H)-one] was tested. Which IC50 did it give?
**A.** The IC50 was 250 to 500 nM.

**Q.** `CO[C@H]1CC[C@@H](N2CC(=O)Nc3ncc(-c4ccc(C#N)nc4C)nc32)CC1` [Example 94, 5-(8-(cis-4-methoxycyclohexyl)-6-oxo-5,6,7,8-tetrahydropyrazino[2,3-b]pyrazin-2-yl)-6-methylpicolinonitrile] was tested. Which IC50 did it give?
**A.** Its IC50 is 1000 to 10000 nM.

**Q.** Which IC50 does the source give for `COCC(=O)N1CCN2c3nc(-c4ccc(-c5nnc[nH]5)cc4C)cnc3NC(=O)C2C1` (stereo not drawn) [Example 96, 9-(4-(4H-1,2,4-triazol-3-yl)-2-methylphenyl)-3-(2-methoxyacetyl)-6,11,4a-trihydropiperazino[1,2-e]pyrazino[2,3-b]pyrazin-5-one] here?
**A.** The IC50 was 0.005 to 250 nM.

**Q.** `Cc1cc(-c2nnc[nH]2)ccc1-c1cnc2c(n1)N1CCNCC1C(=O)N2` (stereo not drawn) [Example 97, 9-(4-(4H-1,2,4-triazol-3-yl)-2-methylphenyl)-6,11,4a-trihydropiperazino[1,2-e]pyrazino[2,3-b]pyrazin-5-one] was tested. Which IC50 did it give?
**A.** The IC50 was 0.005 to 250 nM.

**Q.** With `COCCN1CCN2c3nc(-c4ccc(-c5nnc[nH]5)cc4C)cnc3NC(=O)C2C1` (stereo not drawn) [Example 98, 9-(4-(4H-1,2,4-triazol-3-yl)-2-methylphenyl)-3-(2-methoxyethyl)-6,11,4a-trihydropiperazino[1,2-e]pyrazino[2,3-b]pyrazin-5-one] as the compound, how does the IC50 read?
**A.** Its IC50 is 250 to 500 nM.

**Q.** With `Cc1nc(-c2nnc[nH]2)ccc1-c1cnc2c(n1)N(CC1CCCC1)CC(=O)N2` [Example 99, 4-(cyclopentylmethyl)-6-(2-methyl-6-(4H-1,2,4-triazol-3-yl)pyridin-3-yl)-3,4-dihydropyrazino[2,3-b]pyrazin-2(1H)-one] as the compound, how does the IC50 read?
**A.** The IC50 was 0.005 to 250 nM.

**Q.** With `Cc1nc(-c2nnc[nH]2)ccc1-c1cnc2c(n1)N1CCOCC1C(=O)N2` (stereo not drawn) [Example 100, 9-(6-(4H-1,2,4-triazol-3-yl)-2-methyl-3-pyridyl)-6,11,4a-trihydromorpholino[4,3-e]pyrazino[2,3-b]pyrazin-5-one] as the compound, how does the IC50 read?
**A.** Its IC50 is 250 to 500 nM.

**Q.** `CC(C)(O)c1ccc(-c2cnc3c(n2)N([C@H]2CC[C@H](O)CC2)CC(=O)N3)cn1` [Example 101, 4-(trans-4-hydroxycyclohexyl)-6-(6-(2-hydroxypropan-2-yl)pyridin-3-yl)-3,4-dihydropyrazino[2,3-b]pyrazin-2(1H)-one] was tested. Which IC50 did it give?
**A.** Its IC50 is 0.005 to 250 nM.

**Q.** For `CC(C)(O)c1ccc(-c2cnc3c(n2)N([C@H]2CC[C@@H](O)CC2)CC(=O)N3)cn1` [Example 102, 4-(cis-4-hydroxycyclohexyl)-6-(6-(2-hydroxypropan-2-yl)pyridin-3-yl)-3,4-dihydropyrazino[2,3-b]pyrazin-2(1H)-one], which IC50 is on record?
**A.** The IC50 was 250 to 500 nM.

**Q.** For `CC(C)(O)c1ccc(-c2cnc3c(n2)N(CC2CCOC2)CC(=O)N3)cn1` (stereo not drawn) [Example 103, 6-(6-(2-hydroxypropan-2-yl)pyridin-3-yl)-4-((tetrahydrofuran-3-yl)methyl)-3,4-dihydropyrazino[2,3-b]pyrazin-2(1H)-one], which IC50 is on record?
**A.** The IC50 was 500 to 1000 nM.

**Q.** `CC(C)(O)c1ccc(-c2cnc3c(n2)N(CC2CCCC2)CC(=O)N3)cn1` [Example 104, 4-(cyclopentylmethyl)-6-(6-(2-hydroxypropan-2-yl)pyridin-3-yl)-3,4-dihydropyrazino[2,3-b]pyrazin-2(1H)-one] was tested. Which IC50 did it give?
**A.** Its IC50 is 0.005 to 250 nM.

**Q.** `CC(C)(C)CN1CC(=O)Nc2ncc(-c3ccc(C(C)(C)O)nc3)nc21` [Example 105, 6-(6-(2-hydroxypropan-2-yl)pyridin-3-yl)-4-neopentyl-3,4-dihydropyrazino[2,3-b]pyrazin-2(1H)-one] was tested. Which IC50 did it give?
**A.** Its IC50 is 250 to 500 nM.

**Q.** How did the IC50 turn out when `CC(C)CN1CC(=O)Nc2ncc(-c3ccc(C(C)(C)O)nc3)nc21` [Example 106, 6-(6-(2-hydroxypropan-2-yl)pyridin-3-yl)-4-isobutyl-3,4-dihydropyrazino[2,3-b]pyrazin-2(1H)-one] was run?
**A.** Its IC50 is 500 to 1000 nM.

**Q.** How did the IC50 turn out when `Cc1cc(-c2nnc[nH]2)ccc1-c1cnc2c(n1)N(CCC1CCOCC1)C(C)C(=O)N2` (stereo not drawn) [Example 107, 3-methyl-6-(2-methyl-4-(4H-1,2,4-triazol-3-yl)phenyl)-4-(2-(tetrahydro-2H-pyran-4-yl)ethyl)-3,4-dihydropyrazino[2,3-b]pyrazin-2(1H)-one] was run?
**A.** Its IC50 is 0.005 to 250 nM.

**Q.** With `CC(C)(O)c1ccc(-c2cnc3c(n2)N(C2CCNCC2)CC(=O)N3)cn1` [Example 108, 6-(6-(2-hydroxypropan-2-yl)pyridin-3-yl)-4-(piperidin-4-yl)-3,4-dihydropyrazino[2,3-b]pyrazin-2(1H)-one] as the compound, how does the IC50 read?
**A.** Its IC50 is 1000 to 10000 nM.

**Q.** For `CC(C)(O)c1ccc(-c2cnc3c(n2)N(CCC2CCCOC2)CC(=O)N3)cn1` (stereo not drawn) [Example 109, 6-(6-(2-hydroxypropan-2-yl)pyridin-3-yl)-4-(2-(tetrahydro-2H-pyran-3-yl)ethyl)-3,4-dihydropyrazino[2,3-b]pyrazin-2(1H)-one], which IC50 is on record?
**A.** The IC50 was 0.005 to 250 nM.

**Q.** For `CO[C@H]1C[C@@H]2C(=O)Nc3ncc(-c4ccc(-c5nnc[nH]5)cc4C)nc3N2C1` [Example 112, 8-(4-(4H-1,2,4-triazol-3-yl)-2-methylphenyl)(2S,3aR)-2-methoxy-5,10,3a-trihydropyrazino[2,3-b]pyrrolidino[1,2-e]pyrazin-4-one], which IC50 is on record?
**A.** Its IC50 is 0.005 to 250 nM.
